# Like-named read-outs stand apart in the source and are kept apart here.
# Columns and labels:
# Format in all cases: in vivo
# [1] = tested on: Surinam grass (Brachiaria decumbens); test: Test B pre/postemergence; details: Urochloa decumbens; for pest or weed control at 125 g/ha: 125 g ai/ha; for pest or weed control at 500 g/ha: 500 g ai/ha
# Procedure, shortened: (§1)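 Under greenhouse conditions, seeded pots and young plants (1- to 4-leaf, 2 to 18 cm) were treated at the same time with test chemicals in a non-phytotoxic solvent mixture containing surfactant. Response was assessed visually after 13 to 15 days, from 0 (no effect) to 100 (complete control).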
# [2] = tested on: barnyardgrass (Echinochloa crus-galli); test: Test B pre/postemergence; details: Echinochloa crus-galli; for pest or weed control at 125 g/ha: 125 g ai/ha; for pest or weed control at 500 g/ha: 500 g ai/ha
# Procedure, shortened: as §1
# [3] = tested on: cocklebur (Xanthium strumarium); test: Test B pre/postemergence; details: Xanthium strumarium; for pest or weed control at 125 g/ha: 125 g ai/ha; for pest or weed control at 500 g/ha: 500 g ai/ha
# Procedure, shortened: as §1
# corn (Zea mays) = test: Test B pre/postemergence; details: Zea mays
# Procedure, shortened: as §1
# [4] = tested on: crabgrass (Digitaria sanguinalis); test: Test B pre/postemergence; details: Digitaria sanguinalis; for pest or weed control at 125 g/ha: 125 g ai/ha; for pest or weed control at 500 g/ha: 500 g ai/ha
# Procedure, shortened: as §1
# [5] = tested on: giant foxtail (Setaria faberii); test: Test B pre/postemergence; details: Setaria faberi; for pest or weed control at 125 g/ha: 125 g ai/ha; for pest or weed control at 500 g/ha: 500 g ai/ha
# Procedure, shortened: as §1
# [6] = tested on: lambsquarters (Chenopodium album); test: Test B pre/postemergence; details: Chenopodium album; for pest or weed control at 125 g/ha: 125 g ai/ha; for pest or weed control at 500 g/ha: 500 g ai/ha
# Procedure, shortened: as §1
# [7] = tested on: morningglory (Ipomoea coccinea); test: Test B pre/postemergence; details: Ipomoea; for pest or weed control at 125 g/ha: 125 g ai/ha; for pest or weed control at 500 g/ha: 500 g ai/ha
# Procedure, shortened: as §1
# [8] = tested on: pigweed (Amaranthus retroflexus); test: Test B pre/postemergence; details: Amaranthus retroflexus; for pest or weed control at 125 g/ha: 125 g ai/ha; for pest or weed control at 500 g/ha: 500 g ai/ha
# Procedure, shortened: as §1
# [9] = tested on: velvetleaf (Abutilon theophrasti); test: Test B pre/postemergence; details: Abutilon theophrasti; for pest or weed control at 125 g/ha: 125 g ai/ha; for pest or weed control at 500 g/ha: 500 g ai/ha
# Procedure, shortened: as §1
# [10] = tested on: wheat (Triticum aestivum); test: Test B pre/postemergence; details: Triticum aestivum; for plant injury at 125 g/ha: 125 g ai/ha; for plant injury at 500 g/ha: 500 g ai/ha
# Procedure, shortened: as §1
# [11] = tested on: blackgrass (Alopecurus myosuroides); test: Test B postemergence; details: Alopecurus myosuroides, post-emergence
# Procedure, shortened: as §1
# wild oat (Avena fatua) = test: Test B postemergence; details: Avena fatua, post-emergence
# Procedure, shortened: as §1
# [12] = tested on: barnyardgrass (Echinochloa crus-galli); test: Test B flooded paddy test; details: Echinochloa crus-galli, Flood, 1000 g ai/ha; scale 0 (no effect) to 100 (complete control); read-out: Plant response rating, Barnyardgrass
# Procedure, shortened: (§2)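 Visual injury scoring (0 = no effect, 100 = complete control) versus controls made 13 to 15 days after treatment in the greenhouse. Test species were grown in flooded paddy to the 2-leaf stage: rice, barnyardgrass, umbrella sedge, duck salad.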
# [13] = tested on: duck salad (Heteranthera limosa); test: Test B flooded paddy test; details: Heteranthera limosa, Flood, 1000 g ai/ha; scale 0 to 100; read-out: Plant response rating, Ducksalad
# Procedure, shortened: as §2
# rice (Oryza sativa) = test: Test B flooded paddy test; details: Oryza sativa, Flood, 1000 g ai/ha; scale 0 to 100; read-out: Plant response rating, Rice
# Procedure, shortened: as §2
# [14] = tested on: umbrella sedge (Cyperus difformis); test: Test B flooded paddy test; details: Cyperus difformis, Flood, 1000 g ai/ha; scale 0 to 100; read-out: Plant response rating, Sedge, Umbrella
# Procedure, shortened: as §2
smiles,measurement,setting,value
"COC(=O)c1nc(C2CC2)nc(N)c1Cl [Compound 9, methyl 6-amino-5-chloro-2-cyclopropyl-4-pyrimidinecarboxylate]",pest or weed control at 125 g/ha,"[1]; post-emergence, Postemergence, scale 0 to 100 (0 no effect, 100 complete control), read-out: Surinam Grass plant response rating",90%
same,pest or weed control at 500 g/ha,"[1]; post-emergence, Postemergence, scale 0 to 100, read-out: Plant response rating, Surinam Grass",90%
same,pest or weed control at 125 g/ha,"[1]; pre-emergence, Preemergence, scale 0 to 100 (0 no effect, 100 complete control), read-out: Plant response rating, Surinam Grass",70%
same,pest or weed control at 500 g/ha,"[1]; pre-emergence, Preemergence, scale 0 to 100 (0 no effect, 100 complete control), read-out: Surinam Grass plant response rating",90%
same,pest or weed control at 125 g/ha,"[2]; post-emergence, Postemergence, scale 0 to 100 (0 no effect, 100 complete control), read-out: Barnyardgrass plant response rating",90%
same,pest or weed control at 500 g/ha,"[2]; post-emergence, Postemergence, scale 0 to 100, read-out: Plant response rating, Barnyardgrass",90%
same,pest or weed control at 125 g/ha,"[2]; pre-emergence, Preemergence, scale 0 to 100 (0 no effect, 100 complete control), read-out: Plant response rating, Barnyardgrass",50%
same,pest or weed control at 500 g/ha,"[2]; pre-emergence, Preemergence, scale 0 to 100 (0 no effect, 100 complete control), read-out: Barnyardgrass plant response rating",90%
same,pest or weed control at 125 g/ha,"[3]; post-emergence, Postemergence, scale 0 to 100 (0 no effect, 100 complete control), read-out: Cocklebur plant response rating",100%
same,pest or weed control at 500 g/ha,"[3]; post-emergence, Postemergence, scale 0 to 100, read-out: Plant response rating, Cocklebur",100%
same,pest or weed control at 125 g/ha,"[3]; pre-emergence, Preemergence, scale 0 to 100 (0 no effect, 100 complete control), read-out: Plant response rating, Cocklebur",90%
same,pest or weed control at 500 g/ha,"[3]; pre-emergence, Preemergence, scale 0 to 100 (0 no effect, 100 complete control), read-out: Cocklebur plant response rating",100%
same,plant injury at 125 g/ha,"corn (Zea mays); post-emergence, Postemergence, 125 g ai/ha, scale 0 to 100 (0 no effect, 100 complete control), read-out: Corn plant response rating",70%
same,"Corn plant response rating (crop injury, 0 = no effect, 100 = complete kill) at 500 g/ha","corn (Zea mays); post-emergence, Postemergence, 500 g ai/ha, scale 0 to 100",90%
same,"Corn plant response rating (crop injury, 0 = no effect, 100 = complete kill) at 125 g/ha","corn (Zea mays); pre-emergence, Preemergence, 125 g ai/ha, scale 0 to 100 (0 no effect, 100 complete control)",50%
same,plant injury at 500 g/ha,"corn (Zea mays); pre-emergence, Preemergence, 500 g ai/ha, scale 0 to 100 (0 no effect, 100 complete control), read-out: Corn plant response rating",80%
same,pest or weed control at 125 g/ha,"[4]; post-emergence, Postemergence, scale 0 to 100 (0 no effect, 100 complete control), read-out: Crabgrass plant response rating",90%
same,pest or weed control at 500 g/ha,"[4]; post-emergence, Postemergence, scale 0 to 100, read-out: Plant response rating, Crabgrass",90%
same,pest or weed control at 125 g/ha,"[4]; pre-emergence, Preemergence, scale 0 to 100 (0 no effect, 100 complete control), read-out: Plant response rating, Crabgrass",90%
same,pest or weed control at 500 g/ha,"[4]; pre-emergence, Preemergence, scale 0 to 100 (0 no effect, 100 complete control), read-out: Crabgrass plant response rating",100%
same,pest or weed control at 125 g/ha,"[5]; post-emergence, Postemergence, scale 0 to 100 (0 no effect, 100 complete control), read-out: Foxtail, Giant plant response rating",90%
same,pest or weed control at 500 g/ha,"[5]; post-emergence, Postemergence, scale 0 to 100, read-out: Plant response rating, Foxtail, Giant",90%
same,pest or weed control at 125 g/ha,"[5]; pre-emergence, Preemergence, scale 0 to 100 (0 no effect, 100 complete control), read-out: Plant response rating, Foxtail, Giant",70%
same,pest or weed control at 500 g/ha,"[5]; pre-emergence, Preemergence, scale 0 to 100 (0 no effect, 100 complete control), read-out: Foxtail, Giant plant response rating",80%
same,pest or weed control at 125 g/ha,"[6]; post-emergence, Postemergence, scale 0 to 100 (0 no effect, 100 complete control), read-out: Lambsquarters plant response rating",90%
same,pest or weed control at 500 g/ha,"[6]; post-emergence, Postemergence, scale 0 to 100, read-out: Plant response rating, Lambsquarters",100%
same,pest or weed control at 125 g/ha,"[6]; pre-emergence, Preemergence, scale 0 to 100 (0 no effect, 100 complete control), read-out: Plant response rating, Lambsquarters",90%
same,pest or weed control at 500 g/ha,"[6]; pre-emergence, Preemergence, scale 0 to 100 (0 no effect, 100 complete control), read-out: Lambsquarters plant response rating",100%
same,pest or weed control at 125 g/ha,"[7]; post-emergence, Postemergence, scale 0 to 100 (0 no effect, 100 complete control), read-out: Morningglory plant response rating",100%
same,pest or weed control at 500 g/ha,"[7]; post-emergence, Postemergence, scale 0 to 100, read-out: Plant response rating, Morningglory",100%
same,pest or weed control at 125 g/ha,"[7]; pre-emergence, Preemergence, scale 0 to 100 (0 no effect, 100 complete control), read-out: Plant response rating, Morningglory",100%
same,pest or weed control at 500 g/ha,"[7]; pre-emergence, Preemergence, scale 0 to 100 (0 no effect, 100 complete control), read-out: Morningglory plant response rating",100%
same,pest or weed control at 125 g/ha,"[8]; post-emergence, Postemergence, scale 0 to 100 (0 no effect, 100 complete control), read-out: Pigweed plant response rating",100%
same,pest or weed control at 500 g/ha,"[8]; post-emergence, Postemergence, scale 0 to 100, read-out: Plant response rating, Pigweed",100%
same,pest or weed control at 125 g/ha,"[8]; pre-emergence, Preemergence, scale 0 to 100 (0 no effect, 100 complete control), read-out: Plant response rating, Pigweed",90%
same,pest or weed control at 500 g/ha,"[8]; pre-emergence, Preemergence, scale 0 to 100 (0 no effect, 100 complete control), read-out: Pigweed plant response rating",100%
same,pest or weed control at 125 g/ha,"[9]; post-emergence, Postemergence, scale 0 to 100 (0 no effect, 100 complete control), read-out: Velvetleaf plant response rating",100%
same,pest or weed control at 500 g/ha,"[9]; post-emergence, Postemergence, scale 0 to 100, read-out: Plant response rating, Velvetleaf",100%
same,pest or weed control at 125 g/ha,"[9]; pre-emergence, Preemergence, scale 0 to 100 (0 no effect, 100 complete control), read-out: Plant response rating, Velvetleaf",90%
same,pest or weed control at 500 g/ha,"[9]; pre-emergence, Preemergence, scale 0 to 100 (0 no effect, 100 complete control), read-out: Velvetleaf plant response rating",100%
same,plant injury at 125 g/ha,"[10]; post-emergence, Postemergence, scale 0 to 100 (0 no effect, 100 complete control), read-out: Wheat plant response rating",40%
same,plant injury at 500 g/ha,"[10]; post-emergence, Postemergence, scale 0 to 100, read-out: Plant response rating, Wheat",70%
same,plant injury at 125 g/ha,"[10]; pre-emergence, Preemergence, scale 0 to 100 (0 no effect, 100 complete control), read-out: Plant response rating, Wheat",40%
same,plant injury at 500 g/ha,"[10]; pre-emergence, Preemergence, scale 0 to 100 (0 no effect, 100 complete control), read-out: Wheat plant response rating",80%
same,pest or weed control at 125 g/ha,"[11]; 125 g ai/ha, scale 0 to 100 (0 no effect, 100 complete control), read-out: Blackgrass plant response rating",60%
same,pest or weed control at 500 g/ha,"[11]; 500 g ai/ha, scale 0 to 100, read-out: Plant response rating, Blackgrass",80%
same,pest or weed control at 125 g/ha,"wild oat (Avena fatua); 125 g ai/ha, scale 0 to 100 (0 no effect, 100 complete control), read-out: Oat, Wild plant response rating",20%
same,pest or weed control at 500 g/ha,"wild oat (Avena fatua); 500 g ai/ha, scale 0 to 100, read-out: Plant response rating, Oat, Wild",70%
same,pest or weed control at 1000 g/ha,[12],90%
same,pest or weed control at 1000 g/ha,[13],100%
same,plant injury at 1000 g/ha,rice (Oryza sativa),80%
same,pest or weed control at 1000 g/ha,[14],90%
